Molecular target: T1, D-amino acid oxidase (DAAO) (Mus musculus, UniProt P18894)
T1 construct: gene Dao
Test: cell-based

T1 sequence (P18894 whole entry): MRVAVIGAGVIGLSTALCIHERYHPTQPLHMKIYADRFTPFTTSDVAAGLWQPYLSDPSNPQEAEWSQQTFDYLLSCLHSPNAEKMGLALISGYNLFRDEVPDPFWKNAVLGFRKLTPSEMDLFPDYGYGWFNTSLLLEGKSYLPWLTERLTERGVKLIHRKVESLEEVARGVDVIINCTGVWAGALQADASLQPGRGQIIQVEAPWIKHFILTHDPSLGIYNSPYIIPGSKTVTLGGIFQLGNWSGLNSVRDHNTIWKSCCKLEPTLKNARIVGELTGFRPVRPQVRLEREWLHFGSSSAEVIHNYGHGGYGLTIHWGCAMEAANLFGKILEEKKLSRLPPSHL

## O=c1[nH]nc(CCc2ccc(C(F)(F)F)cc2)cc1O [luvadaxistat]
  IC50: 5.1 nM

— PMC10471729, “Luvadaxistat: A Novel Potent and Selective D-Amino Acid Oxidase Inhibitor Improves Cognitive and Social Deficits in Rodent Models for Schizophrenia” (Neurochemical Research, 2023)
